# Assay results reported in ChEMBL document CHEMBL4251725, “Azabicyclic Fused Pyrimidine Derivatives Useful for the Treatment of Alzheimer's Disease” (ACS Med Chem Lett, 2018).
# Target: Gamma-secretase
# Assay: Inhibition of gamma-secretase in human H4 cells harboring APP695 K595N/M596L swedish mutant after 24 hrs by AlphaLisa assay
# Type: cell-based
row,EC50 [nM],Compound
1,14,CNc1nc(Nc2ccc(-n3cnc(C)c3)c(OC)c2)nc2c1C(C)(C)CN2C1CC(F)(F)C1
2,8,CNc1nc(Nc2ccc(-n3cnc(C)n3)c(F)c2)nc2c1C(C)(C)CCN2c1ccc(F)cc1
